Data taken from patent US20100081679A1, “DIAMINOPYRIMIDINES AS FUNGICIDES” (Bayer CropScience AG, priority 2007, published 2010).
Marks after values point to notes of the source that are not given here.

Assay: logP determination via retention times, calibrated with unbranched alkan-2-ones
Assay type: physicochemical
Conditions: HPLC on reversed-phase C 18, EEC Directive 79/831 Annex V.A8; method *: 40° C., 0.1% aqueous formic acid and acetonitrile, linear gradient 10% to 95% acetonitrile

logP | SMILES
2.33* | CC(C)(C)OC(=O)Nc1cccc(Nc2ncc(Cl)c(NCC3CC3)n2)c1 [compound 524]
1.47* | OCc1cccc(Nc2ncc(Cl)c(NCC3CC3)n2)c1 [compound 560]
3.8* | CCCCC(=O)Oc1ccc(Nc2ncc(Cl)c(NCC3CC3)n2)cc1 [compound 551]

Same assay, conditions: HPLC on reversed-phase C18, method *: 40° C., 0.1% aqueous formic acid and acetonitrile, linear gradient 10% to 95% acetonitrile

logP | SMILES
1.86* | CCN(CC)C(=O)c1cccc(Nc2ncc(Cl)c(NC3CC3)n2)c1 [compound 701]
1.07* | Brc1cnc(Nc2ccc(OCCN3CCCCC3)cc2)nc1NC1CC1 [compound 117]
2.82* | OC(c1cccc(Nc2ncc(C(F)(F)F)c(NCC3CC3)n2)c1)C(F)(F)F (stereo not drawn) [compound 667]
3.29* | COC(C)c1cccc(Nc2ncc(C(F)(F)F)c(NCC3CC3)n2)c1 (racemic) [compound 962]
1.83* | CC(=O)CCc1cccc(Nc2ncc(Br)c(NC3CC3)n2)c1 [compound 967]
1.41* | Oc1ccc(Nc2ncc(Br)c(NC3CC3)n2)cc1F [compound 764]
1.59* | O=C(c1ccc(Nc2ncc(Cl)c(NCC3CC3)n2)cc1)N1CCOCC1 [compound 696]
1.69* | CC(=O)N(C)c1ccc(Nc2ncc(C#N)c(NC3CC3)n2)cc1 [compound 158]
3.21* | COC(=O)c1ccc(Nc2ncc(C(F)(F)F)c(NC3CC3)n2)cc1 [compound 971]

Same assay, conditions: HPLC on reversed-phase C18, method *: 40° C.; mobile phase 0.1% aqueous formic acid and acetonitrile; linear gradient 10% to 95% acetonitrile

logP | SMILES
2.25* | CCC(=O)c1cccc(Nc2ncc(Cl)c(NC3CC3)n2)c1 [compound 304]
1.18* | COc1cc(Nc2ncc(Cl)c(NC3CC3)n2)ccc1NC(C)=O [compound 280]
3.14* | FC(F)(F)c1ccc(Nc2ncc(Cl)c(NC3CC3)n2)cc1 [compound 277]
2.11* | FC(F)Oc1ccc(Nc2ncc(Cl)c(NC3CC3)n2)cc1 [compound 288]
2.17* | CCOC(=O)C1(Nc2nc(Nc3ccccc3)ncc2Cl)CC1 [compound 315]
3.76* | FC1(F)Oc2ccc(Nc3ncc(Cl)c(NC4CC4)n3)cc2OC1(F)F [compound 289]

Same assay, conditions: HPLC on reversed-phase C18 column (EEC Directive 79/831 Annex V.A8); method *: 40° C.; 0.1% aqueous formic acid and acetonitrile; linear gradient 10% to 95% acetonitrile

logP | SMILES
1.63* | CS(=O)(=O)c1cccc(Nc2ncc(Cl)c(NC3CC3)n2)c1 [compound 252]

Same assay, conditions: HPLC reversed-phase C 18, EEC Directive 79/831 Annex V.A8; method **: 43° C., 0.1% aqueous phosphoric acid and acetonitrile, linear gradient 10% to 95% acetonitrile

logP | SMILES
1.67** | COCc1cccc(Nc2nc(C)c(Cl)c(NC3CC3)n2)c1 [compound 839]

Same assay, conditions: HPLC reversed-phase C 18, EEC Directive 79/831 Annex V.A8; method *: 40° C., 0.1% aqueous formic acid and acetonitrile, linear gradient 10% to 95% acetonitrile

logP | SMILES
2.42* | CC(=O)Cc1cccc(Nc2ncc(C(F)(F)F)c(NC3CC3)n2)c1 [compound 783]
1.59* | N#CCc1ccc(Nc2ncc(Cl)c(NC3CC3)n2)cc1 [compound 832]
3.09* | CCSC(C)c1cccc(Nc2ncc(Br)c(NC3CC3)n2)c1 (stereo not drawn) [compound 797]

Same assay, conditions: method **: HPLC reversed-phase C 18, 43° C., 0.1% aqueous phosphoric acid and acetonitrile, linear gradient 10% to 95% acetonitrile

logP | SMILES
2.6** | CCCCNS(=O)(=O)c1ccc(Nc2ncc(Cl)c(NC3CC3)n2)cc1 [Example 22]

Same assay, conditions: method **: HPLC reversed-phase C 18, temperature 43° C.; mobile phase 0.1% aqueous phosphoric acid and acetonitrile; linear gradient 10% to 95% acetonitrile

logP | SMILES
1.78** | CNC(=O)c1cccc(Nc2ncc(C(F)(F)F)c(NC3CC3)n2)c1 [compound 652]

Same assay, conditions: method **: HPLC, reversed-phase C 18, 43° C., mobile phase 0.1% aqueous phosphoric acid and acetonitrile, linear gradient from 10% to 95% acetonitrile

logP | SMILES
2.88** | COCCc1cccc(Nc2ncc(C(F)(F)F)c(NC3CC3)n2)c1 [compound 1039]

Same assay, conditions: method *: HPLC reversed-phase C18, 40° C., 0.1% aqueous formic acid and acetonitrile, linear gradient 10% to 95% acetonitrile

logP | SMILES
1.36* | O=C1CCCN1Cc1ccc(Nc2ncc(Cl)c(NC3CC3)n2)cc1 [compound 432]
2.2* | N#CCS(=O)(=O)c1ccc(Nc2ncc(Cl)c(NC3CC3)n2)cc1 [compound 62]
2.8* | FC(F)C(F)(F)Oc1ccc(Nc2ncc(Br)c(NCC3CC3)n2)cc1 [compound 462]

Same assay, conditions: method *: HPLC reversed-phase C 18, temperature 40° C.; mobile phase 0.1% aqueous formic acid and acetonitrile; linear gradient 10% to 95% acetonitrile

logP | SMILES
1.78*; | CNC(=O)c1cccc(Nc2ncc(C(F)(F)F)c(NC3CC3)n2)c1 [compound 652]
2.23* | CC(=O)c1cccc(Nc2ncc(C#N)c(NC3CC3)n2)c1 [compound 610]
1.58* | CN1CCN(c2cccc(Nc3ncc(Br)c(NC4CC4)n3)c2)C1=O [compound 570]
1.92* | CC(C)(C)C(=O)Cc1ccc(Nc2ncc(F)c(NC3CC3)n2)cc1 [compound 589]

Same assay, conditions: pH 2.3; read-out: logP (pH2.3)

chromatographic logP | SMILES
1.56 | O=c1[nH]c(Nc2ccccc2)ncc1Cl [2-Anilino-5-chloropyrimidin-4(3H)-one]
1.79 | Clc1ncc(Cl)c(NC2CC2)n1 [2,5-Dichloro-N-cyclopropylpyrimidine-4-amine]
1.97 | Clc1ncc(Br)c(NC2CC2)n1 [5-bromo-2-chloro-N-cyclopropylpyrimidine-4-amine]
